In the supplement of paper PMC10307832:

Assays:
Assay in all cases: relative viability (nuclei count vs DMSO), 5 days (fraction); higher = more cells survive
17-AAG + Olaparib = compound: C=CCNC1=C2C[C@@H](C)C[C@H](OC)[C@H](O)[C@@H](C)/C=C(\C)[C@H](OC(N)=O)[C@@H](OC)/C=C\C=C(/C)C(=O)NC(=CC1=O)C2=O [17-AAG] + O=C(c1cc(Cc2n[nH]c(=O)c3ccccc23)ccc1F)N1CCN(C(=O)C2CC2)CC1 [Olaparib] (partner 8 µM)
In short: (§1)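 Values are medians from duplicate plates. Each reflects relative viability, defined as the nuclei count of treated wells over that of vehicle wells. Lung cancer cell lines in 1536-well plates were pin-tool dosed one day after seeding with one drug alone or with a fixed anchor-drug dose plus five library-drug doses (not always all listed) in √10 steps, then fixed, stained and imaged at 4× after 5 days.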

17-AAG + Foretinib = compound: C=CCNC1=C2C[C@@H](C)C[C@H](OC)[C@H](O)[C@@H](C)/C=C(\C)[C@H](OC(N)=O)[C@@H](OC)/C=C\C=C(/C)C(=O)NC(=CC1=O)C2=O [17-AAG] + COc1cc2c(Oc3ccc(NC(=O)C4(C(=O)Nc5ccc(F)cc5)CC4)cc3F)ccnc2cc1OCCCN1CCOCC1 [Foretinib] (partner 0.25 µM)
In short: as §1

17-AAG + Pemetrexed = compound: C=CCNC1=C2C[C@@H](C)C[C@H](OC)[C@H](O)[C@@H](C)/C=C(\C)[C@H](OC(N)=O)[C@@H](OC)/C=C\C=C(/C)C(=O)NC(=CC1=O)C2=O [17-AAG] + Nc1nc2[nH]cc(CCc3ccc(C(=O)N[C@@H](CCC(=O)O)C(=O)O)cc3)c2c(=O)[nH]1 [Pemetrexed] (partner 0.2 µM)
In short: as §1

17-AAG + Alpelisib = compound: C=CCNC1=C2C[C@@H](C)C[C@H](OC)[C@H](O)[C@@H](C)/C=C(\C)[C@H](OC(N)=O)[C@@H](OC)/C=C\C=C(/C)C(=O)NC(=CC1=O)C2=O [17-AAG] + Cc1nc(NC(=O)N2CCC[C@H]2C(N)=O)sc1-c1ccnc(C(C)(C)C(F)(F)F)c1 [Alpelisib] (partner 2 µM)
In short: as §1

Cell Line | relative viability (17-AAG + Olaparib; first compound 0.00128 µM) | relative viability (17-AAG + Olaparib; first compound 0.004048 µM) | relative viability (17-AAG + Olaparib; first compound 0.0128 µM) | relative viability (17-AAG + Olaparib; first compound 0.04048 µM) | relative viability (17-AAG + Olaparib; first compound 0.128 µM) | relative viability (17-AAG + Foretinib; first compound 0.00128 µM) | relative viability (17-AAG + Foretinib; first compound 0.004048 µM) | relative viability (17-AAG + Foretinib; first compound 0.0128 µM) | relative viability (17-AAG + Foretinib; first compound 0.04048 µM) | relative viability (17-AAG + Foretinib; first compound 0.128 µM) | relative viability (17-AAG + Pemetrexed; first compound 0.00128 µM) | relative viability (17-AAG + Pemetrexed; first compound 0.004048 µM) | relative viability (17-AAG + Pemetrexed; first compound 0.0128 µM) | relative viability (17-AAG + Pemetrexed; first compound 0.04048 µM) | relative viability (17-AAG + Pemetrexed; first compound 0.128 µM) | relative viability (17-AAG + Alpelisib; first compound 0.00128 µM) | relative viability (17-AAG + Alpelisib; first compound 0.004048 µM) | relative viability (17-AAG + Alpelisib; first compound 0.0128 µM) | relative viability (17-AAG + Alpelisib; first compound 0.04048 µM) | relative viability (17-AAG + Alpelisib; first compound 0.128 µM)
EKVX | 0.826 | 0.762 | 0.775 | 0.175 | 0.126 | 0.895 | 0.805 | 0.175 | 0.192 | 0.131 | 0.475 | 0.381 | 0.491 | 0.17 | 0.131 | 0.878 | 0.944 | 0.875 | 0.208 | 0.163
NCI-H23 | 0.364 | 0.296 | 0.155 | 0.109 | 0.107 | 0.906 | 1.04 | 0.842 | 0.641 | 0.182 | 0.564 | 0.735 | 0.442 | 0.202 | 0.147 | 0.717 | 0.472 | 0.434 | 0.2 | 0.148
EMC-BAC-2 | 0.533 | 0.516 | 0.316 | 0.334 | 0.273 | 1.04 | 1.05 | 1.09 | 0.353 | 0.316 | 0.504 | 0.536 | 0.548 | 0.448 | 0.383 | 0.836 | 0.761 | 0.754 | 0.813 | 0.381
LOU-NH91 | 0.894 | 0.759 | 0.546 | 0.395 | 0.386 | 0.868 | 0.727 | 0.633 | 0.36 | 0.279 | 0.392 | 0.371 | 0.304 | 0.302 | 0.371 | 0.66 | 0.592 | 0.532 | 0.446 | 0.34
LU99A | 0.271 | 0.26 | 0.237 | 0.165 | 0.162 | 0.931 | 0.783 | 0.719 | 0.222 | 0.213 | 0.175 | 0.184 | 0.165 | 0.188 | 0.111 | 0.564 | 0.535 | 0.477 | 0.4 | 0.165
NCI-H1395 | 0.452 | 0.458 | 0.359 | 0.37 | 0.418 | 0.963 | 0.988 | 0.843 | 0.396 | 0.318 | 0.86 | 0.938 | 0.494 | 0.349 | 0.354 | 1.02 | 0.967 | 0.804 | 0.395 | 0.388
NCI-H520 | 0.34 | 0.232 | 0.162 | 0.136 | 0.12 | 0.763 | 0.56 | 0.702 | 0.169 | 0.142 | 0.604 | 0.7 | 0.261 | 0.127 | 0.129 | 0.993 | 0.838 | 0.839 | 0.155 | 0.132
201T | 0.843 | 0.857 | 0.849 | 0.802 | 0.748 | 1.11 | 1.06 | 0.503 | 0.194 | 0.175 | 0.317 | 0.342 | 0.361 | 0.23 | 0.213 | 1.07 | 1.03 | 0.984 | 0.943 | 0.818
NCI-H1944 | 0.4 | 0.413 | 0.383 | 0.335 | 0.137 | 0.974 | 0.896 | 0.735 | 0.216 | 0.175 | 0.601 | 0.561 | 0.357 | 0.266 | 0.131 | 0.883 | 0.88 | 0.85 | 0.682 | 0.281
NCI-H3122 | 0.598 | 0.61 | 0.538 | 0.288 | 0.124 | 0.961 | 0.934 | 0.138 | 0.076 | 0.098 | 0.198 | 0.191 | 0.127 | 0.122 | 0.11 | 0.687 | 0.533 | 0.198 | 0.196 | 0.173
NCI-H1755 | 0.873 | 0.849 | 0.903 | 0.712 | 0.238 | 0.92 | 0.898 | 0.888 | 0.302 | 0.309 | 0.47 | 0.404 | 0.407 | 0.355 | 0.214 | 0.957 | 0.945 | 0.891 | 0.652 | 0.254
NCI-H2087 | 0.649 | 0.216 | 0.168 | 0.134 | 0.129 | 1.08 | 0.855 | 0.183 | 0.137 | 0.113 | 0.606 | 0.618 | 0.354 | 0.163 | 0.128 | 1.16 | 0.904 | 0.308 | 0.189 | 0.165
NCI-H2228 | 0.523 | 0.21 | 0.127 | 0.111 | 0.147 | 0.772 | 0.587 | 0.142 | 0.119 | 0.0997 | 0.333 | 0.158 | 0.11 | 0.148 | 0.12 | 0.781 | 0.273 | 0.16 | 0.19 | 0.153
NCI-H838 | 0.768 | 0.591 | 0.139 | 0.128 | 0.133 | 0.965 | 0.977 | 0.667 | 0.178 | 0.158 | 0.258 | 0.313 | 0.208 | 0.133 | 0.154 | 0.872 | 0.96 | 0.803 | 0.176 | 0.158
NCI-H661 | 0.804 | 0.716 | 0.529 | 0.333 | 0.253 | 0.945 | 0.989 | 0.809 | 0.567 | 0.286 | 0.883 | 0.926 | 0.861 | 0.367 | 0.31 | 0.573 | 1 | 0.728 | 0.347 | 0.188
